In US11970497B2, “Tricyclic AKR1C3 dependent KARS inhibitors” (Novartis AG, priority 2019, dated 2024) one finds AC50 data, which are given here for 20 compounds.

Like-named read-outs stand apart in the source and are kept apart here.

The test system of assay [1] is H460 (NRF2 pathway mutant cell line with high AKR1C3 expression). Kind of assay: In vitro cell proliferation assay (CellTiter-Glo), H460. The assay is classed as cell-based. The following applies: Homo sapiens, NCI-H460, 72 h, read-out: H460 Qualified absolute AC50. An outline of the steps: (§1)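 Cells seeded day 1 (H460 800/well, Hara 2000/well) in RPMI-1640 with 10% FBS; compounds added day 2 as 8-point 1:5 dilutions from 10 μM top. After 3 days at 37 °C, viability read by CellTiter-Glo luminescence, normalized to DMSO and MG132 (30 μM) controls to derive percentage activity and AC50.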

Assay [2] concerns Hara (NRF2 pathway wild type cell line with low AKR1C3 expression). The experiment in a line: In vitro cell proliferation assay (CellTiter-Glo), Hara. The assay is classed as cell-based. Conditions: 72 h, read-out: HARA Qualified absolute AC50. An outline of the steps: as §1
On the technique in general: Cellular ATP, detected with luciferase, serves as a proxy for viable cell number.

Setting [3] is: H460 cells, 3 days, CellTiter-Glo, top concentration 10 μM.
The mark [4] stands for this setting: Hara cells, 3 days, CellTiter-Glo, top concentration 10 μM.

The AC50 is the concentration giving half of the maximal activity seen. Take `O=C1CC2(CCN(C(=O)NCc3ccno3)CC2)Nc2ccc(F)cc21` [Example 124, 6′-fluoro-N-(isoxazol-5-ylmethyl)-4′-oxo-3′,4′-dihydro-1′H-spiro[piperidine-4,2′-quinoline]-1-carboxamide]: the figures for the AC50 in assay [1] (setting [3]) and in assay [2] (setting [4]) were 1160 nM and above 10000 nM, respectively.
`O=C1CC2(CCN(C(=O)NCc3ccc(F)nc3)CC2)Nc2c(F)cc(F)cc21` [Example 125, 6′,8′-difluoro-N-((6-fluoropyridin-3-yl)methyl)-4′-oxo-3′,4′-dihydro-1′H-spiro[piperidine-4,2′-quinoline]-1-carboxamide]: the AC50 is 1170 nM in assay [1] (setting [3]) and above 10000 nM in assay [2] (setting [4]).
For `Nc1cc(CNC(=O)N2CCC3(CC2)CC(=O)c2cc(F)ccc2N3)c(F)cc1F` [Example 126, N-(5-amino-2,4-difluorobenzyl)-6′-fluoro-4′-oxo-3′,4′-dihydro-1′H-spiro[piperidine-4,2′-quinoline]-1-carboxamide], in that order: 1290 nM and above 10000 nM.
With `O=C1CC2(CCN(C(=O)NCc3cccc(CO)c3)CC2)Nc2c(F)cc(F)cc21` [Example 129, 6′,8′-difluoro-N-(3-(hydroxymethyl)benzyl)-4′-oxo-3′,4′-dihydro-1′H-spiro[piperidine-4,2′-quinoline]-1-carboxamide], the AC50 in assay [1] (setting [3]) is 1520 nM; in assay [2] (setting [4]), above 10000 nM.
In the case of `O=C1CC2(CCN(C(=O)NCc3cccc(-c4ncc[nH]4)c3)CC2)Nc2ccc(F)cc21` [Example 130, N-(3-(1H-imidazol-2-yl)benzyl)-6′-fluoro-4′-oxo-3′,4′-dihydro-1′H-spiro[piperidine-4,2′-quinoline]-1-carboxamide], the AC50 in assay [1] (setting [3]) was 1530 nM; in assay [2] (setting [4]) it was above 10000 nM.
On to `CS(=O)(=O)Nc1cc(CNC(=O)N2CCC3(CC2)CC(=O)c2cc(F)ccc2N3)ccc1F` [Example 131, 6′-fluoro-N-(4-fluoro-3-(methylsulfonamido)benzyl)-4′-oxo-3′,4′-dihydro-1′H-spiro[piperidine-4,2′-quinoline]-1-carboxamide], for which the concentration at half-maximal activity (AC50) in assay [1] (setting [3]) was 1620 nM; in assay [2] (setting [4]), above 10000 nM.
With `O=C1CC2(CCN(C(=O)NCc3ccc(F)c(CO)c3)CC2)Nc2c(F)cc(F)cc21` [Example 132, 6′,8′-difluoro-N-(4-fluoro-3-(hydroxymethyl)benzyl)-4′-oxo-3′,4′-dihydro-1′H-spiro[piperidine-4,2′-quinoline]-1-carboxamide], the results for the AC50 in assay [1] (setting [3]) and in assay [2] (setting [4]) were 1720 nM and above 10000 nM, respectively.
Turning to `O=C1CC2(CCN(C(=O)NCc3ccc(F)c(NS(=O)(=O)C4CC4)c3)CC2)Nc2ccc(F)cc21` [Example 133, N-(3-(cyclopropanesulfonamido)-4-fluorobenzyl)-6′-fluoro-4′-oxo-3′,4′-dihydro-1′H-spiro[piperidine-4,2′-quinoline]-1-carboxamide], the results for the AC50 in assay [1] (setting [3]) and in assay [2] (setting [4]) were 1770 nM and above 10000 nM, respectively.
`Cc1noc(CNC(=O)N2CCC3(CC2)CC(=O)c2cc(F)ccc2N3)n1` [Example 134, 6′-fluoro-N-((3-methyl-1,2,4-oxadiazol-5-yl)methyl)-4′-oxo-3′,4′-dihydro-1′H-spiro[piperidine-4,2′-quinoline]-1-carboxamide]: the AC50 was found to be 1780 nM in assay [1] (setting [3]) and 94 nM in assay [2] (setting [4]).
`CC(O)c1cc(CNC(=O)N2CCC3(CC2)CC(=O)c2cc(F)ccc2N3)ccc1F` (stereo not shown) [Example 135, 6′-fluoro-N-(4-fluoro-3-(1-hydroxyethyl)benzyl)-4′-oxo-3′,4′-dihydro-1′H-spiro[piperidine-4,2′-quinoline]-1-carboxamide]: the AC50 in assay [1] (setting [3]) is 1860 nM; in assay [2] (setting [4]) it was above 10000 nM.
Consider `Nc1ccc(CNC(=O)N2CCC3(CC2)CC(=O)c2cc(F)ccc2N3)cn1` [Example 136, N-((6-aminopyridin-3-yl)methyl)-6′-fluoro-4′-oxo-3′,4′-dihydro-1′H-spiro[piperidine-4,2′-quinoline]-1-carboxamide], for which the AC50 in assay [1] (setting [3]) is 1990 nM; in assay [2] (setting [4]) it was above 10000 nM.
In the case of `Nc1cc(F)ccc1CNC(=O)N1CCC2(CC1)CC(=O)c1cc(F)ccc1N2` [Example 137, N-(2-amino-4-fluorobenzyl)-6′-fluoro-4′-oxo-3′,4′-dihydro-1′H-spiro[piperidine-4,2′-quinoline]-1-carboxamide], the AC50 in assay [1] (setting [3]) is 2030 nM; in assay [2] (setting [4]) it was above 10000 nM.
As for `O=C1CC2(CCN(C(=O)NCc3cocn3)CC2)Nc2ccc(F)cc21` [Example 138, 6′-fluoro-N-(oxazol-4-ylmethyl)-4′-oxo-3′,4′-dihydro-1′H-spiro[piperidine4,2′-quinoline]-1-carboxamide], the AC50 in assay [1] (setting [3]) is 2110 nM; in assay [2] (setting [4]) it was above 10000 nM.
As to `CN1c2ccc(F)cc2C(=O)CC12CCN(C(=O)NCc1ccc(F)c(C(C)(C)O)c1)CC2` [Example 139, 6′-fluoro-N-(4-fluoro-3-(2-hydroxypropan-2-yl)benzyl)-1′-methyl-4′-oxo-3′,4′-dihydro-1′H-spiro[piperidine-4,2′-quinoline]-1-carboxamide], the AC50 in assay [1] (setting [3]) was determined as 2300 nM; in assay [2] (setting [4]) it was 8830 nM.
With `CN1c2ccc(F)cc2C(=O)CC12CCN(C(=O)NCc1ccc(F)c(NCC(C)(C)C(=O)O)c1)CC2` [Example 140, 3-((2-fluoro-5-((6′-fluoro-1′-methyl-4′-oxo-3′,4′-dihydro-1′H-spiro[piperidine-4,2′-quinoline]-1-carboxamido)methyl)phenyl)amino)-2,2-dimethylpropanoic acid], the AC50 was 2340 nM in assay [1] and above 10000 nM in assay [2].
For the compound `O=C1CC2(CCN(C(=O)NCc3cccc4nonc34)CC2)Nc2ccc(F)cc21` [Example 141, N-(benzo[c][1,2,5]oxadiazol-4-ylmethyl)-6′-fluoro-4′-oxo-3′,4′-dihydro-1′H-spiro[piperidine-4,2′-quinoline]-1-carboxamide], the AC50 is 2450 nM in assay [1] (setting [3]) and above 10000 nM in assay [2] (setting [4]).
With `Cc1cc(F)cc2c1NC1(CCN(C(=O)NCc3ccc(F)c(C(N)=O)c3)CC1)CC2=O` [Example 142, N-(3-carbamoyl-4-fluorobenzyl)-6′-fluoro-8′-methyl-4′-oxo-3′,4′-dihydro-1′H-spiro[piperidine4,2′-quinoline]-1-carboxamide], the results for the AC50 in assay [1] (setting [3]) and in assay [2] (setting [4]) were 2450 nM and above 10000 nM, respectively.
For `CCCNC(=O)c1cc(CNC(=O)N2CCC3(CC2)CC(=O)c2cc(F)ccc2N3)ccc1F` [Example 143, 6′-fluoro-N-(4-fluoro-3-(propylcarbamoyl)benzyl)-4′-oxo-3′,4′-dihydro-1′H-spiro[piperidine-4,2′-quinoline]-1-carboxamide], the AC50 in assay [1] (setting [3]) was 2620 nM; in assay [2] (setting [4]) it was above 10000 nM.
Turning to `O=C1CC2(CCN(C(=O)NCc3cccc(-n4cncn4)c3)CC2)Nc2c(F)cc(F)cc21` [Example 144, N-(3-(1H-1,2,4-triazol-1-yl)benzyl)-6′,8′-difluoro-4′-oxo-3′,4′-dihydro-1′H-spiro[piperidine-4,2′-quinoline]-1-carboxamide], the results for the AC50 in assay [1] (setting [3]) and in assay [2] (setting [4]) were 3050 nM and above 10000 nM, respectively.
Consider `Cn1cc(CNC(=O)N2CCC3(CC2)CC(=O)c2cc(F)ccc2N3)cn1` [Example 145, 6′-fluoro-N-((1-methyl-1H-pyrazol-4-yl)methyl)-4′-oxo-3′,4′-dihydro-1′H-spiro[piperidine-4,2′-quinoline]-1-carboxamide], for which the AC50 in assay [1] (setting [3]) came out at 3500 nM; in assay [2] (setting [4]), 6060 nM.
